Entries after “also recorded” stand apart in the source; their conditions may differ.
Experiments:
Type in all cases: binding, rabbit
[1] = test system: antiserum to homocystamide-LDL adduct; assay: competition ELISA with antiserum (1:700), solid phase homocystamide-LDL adduct; details: competitor against solid phase homocystamide-LDL adduct
Protocol: Antiserum obtained as described in FIG. 1 was added to Millipore 96-well plates containing pre-adsorbed homocystamide-LDL adduct (100 μl, 10 μg/ml) at a limiting dilution (1:700) in the indicated concentrations of competitors (●, homocystamide-LDL adduct, ∘, native LDL, □, acetylated LDL, ▴, methylated LDL, ▪, methylated LDL treated with homocysteine thiolactone). Following a 12 hour incubation, antibody bound was quantified as described in FIG. 2. […] This experiment is representative of 3 independent experiments. (n=3 for each data point. Data points are the mean±SEM).
Antiserum obtained as described in FIG. 1 was added to Millipore 96-well plates containing pre-adsorbed homocystamide-LDL adduct (100 μl, 10 μg/ml) at a limiting dilution (1:700) in the indicated concentrations of competitors (●, Cu^2+-oxidized homocystamide-LDL adduct, ▪, Cu^2+-oxidized LDL, ▴, homocysteine). Following a 12 hour incubation, antibody bound was quantified as described in FIG. 1. […] This experiment is representative of 3 independent experiments. (n=3 for each data point. Data points are the mean±SEM).
Antiserum obtained as described in FIG. 1 was added to Millipore 96-well plates containing pre-adsorbed homocystamide-LDL adduct (100 μl, 10 μg/ml) at a limiting dilution (1:700) in the indicated concentrations of competitors (▴, ●, ▪, homocystamide-LDL, -HDL, and -lipoprotein-deficient serum proteins isolated from homocysteine thiolactone-treated plasma, and freshly drawn plasma without homocysteine thiolactone treatment, Δ). Following a 12 hour incubation, antibody bound following a 2-hour incubation, antibody bound was quantified as described in FIG. 1 using horseradish peroxidase-linked goat-anti-rabbit IgG (heavy and light chains). […] (n=4 for each data point. Data points are the mean±SEM). […] (This experiment is representative of 3 independent experiments. Data points are the mean of duplicate measurements.)
Briefly, 96-well plates were initially coated with homocystamide-LDL adduct (100 μl, 10 μg/ml). […] Immunoglobulin classes were determined using goat-anti-rabbit-μ-chain-specific, -heavy chain specific, and -heavy and light chain specific secondary antibodies that were linked to horseradish peroxidase. In order to determine antibody specificity, competition experiments were employed, using a limiting dilution (1:300) of purified antibody. Horseradish peroxidase-labeled goat-anti rabbit (heavy and light chain-specific) was used as a substrate, and the reaction was quenched by the addition of H2SO4 (100 μl, 1.8 M). The absorbance was measured at 450 nm in a 96-well plate reader.
Homocysteine thiolactone-treated LDL (10 μg/ml) was coated onto 96-well plates.

[2] = test system: purified polyclonal antibody directed against the homocystamide adduct; assay: competition ELISA with purified polyclonal antibody (1:300), solid phase homocystamide-LDL adduct; details: for IC50 values, D,L- versus L-homocystamide-BSA compared: competitor 0-500 μg/ml, P>0.05, data not shown
Protocol: Solid phase ELISA techniques for antibody characterization. Solid phase indirect antibody capture techniques were used in all assays and have been described elsewhere (10, 34). Briefly, 96-well plates were initially coated with homocystamide-LDL adduct (100 μl, 10 μg/ml). For antibody titer determinations, the antisera were diluted at concentrations as indicated in the “Results” section. We defined antibody titers as the inverse of the greatest serum dilution in which a significant difference (p<0.05) between the percentage antibody bound from the antiserum and the pre-immune serum was observed. Immunoglobulin classes were determined using goat-anti-rabbit-μ-chain-specific, -heavy chain specific, and -heavy and light chain specific secondary antibodies that were linked to horseradish peroxidase. In order to determine antibody specificity, competition experiments were employed, using a limiting dilution (1:300) of purified antibody. Horseradish peroxidase-labeled goat-anti rabbit (heavy and light chain-specific) was used as a […], and the reaction was quenched by the addition of H2SO4 (100 μl, 1.8 M). The absorbance was measured at 450 nm in a 96-well plate reader.
Purification of antiserum. Polyclonal rabbit-anti-homocystamide antiserum was obtained following the 4th immunization of New Zealand White rabbits with homologous homocystamide-LDL adduct (0.5 mg in Freund's adjuvant) as described previously (34). A saturated solution of ammonium sulfate was added dropwise to the antiserum while stirring until the solution was 25% saturated with ammonium sulfate. This mixture was incubated overnight at 4° C. The mixture was centrifuged, and pellet was discarded. Ammonium sulfate was added to the supernatant while stirring until the final concentration of the solution was 50% ammonium sulfate. This mixture was incubated overnight at 4° C. The mixture was centrifuged, and the supernatant was discarded. The pellet was brought up in and dialyzed against Tris (10 mM, pH 7.5). […]

[3] = molecular target: purified polyclonal anti-homocystamide adduct antibody; assay: competition ELISA with purified polyclonal antibody (1:400), plates coated with homocystamide-BSA adduct
Protocol: Microtiter plate preparation. BSA (10 mg/ml in 1M borate, pH 8.4) was incubated for 6 hours at 25° C. in the presence of homocysteine thiolactone (50 mM). Following incubation, excess homocysteine thiolactone was removed by passing the sample down a column pre-equilibrated with NaCO3 (100 mM, pH 9.6). Homocystamide-BSA adduct was diluted to 5 μg/ml in NaCO3 (100 mM, pH 9.6), and 200 μl/well was added to polystyrene microtiter plates (11). These plates were incubated overnight at 4° C., rinsed in PBS, and either used immediately or covered and stored in PBS for future use.
Preparation of a standard curve. In order to prepare a standard curve of known homocysteine concentrations, the indicated concentrations of homocysteine were incubated in the presence of HCl (6N) and heated at 60° C. for 2 hours. […] These solutions were used in a competitive antibody binding assays in parallel with “test solutions” that were analyzed for homocysteine concentrations.
Immunoassay. […] The reactions were quenched after 30 minutes by the addition of H2SO4 (1.8N) and read at 450 nm. […]
Determination of antibody specificity. Antibody specificity for homocystamide-BSA adduct was determined. […] Results of antibody binding are expressed as B/B0, in which B is the % antibody binding in the presence of competitor, and B0 is the % antibody binding in the absence of competitor. […]

[4] = test system: antiserum to homocystamide-LDL adduct; assay: solid phase ELISA serum dilution curve on homocystamide adducts of other proteins; details: protein coated on solid phase
Protocol: Solid phase ELISA techniques for antibody characterization. Solid phase indirect antibody capture techniques were used in all assays and have been described elsewhere (10, 34). Briefly, 96-well plates were initially coated with homocystamide-LDL adduct (100 μl, 10 μg/ml). For antibody titer determinations, the antisera were diluted at concentrations as indicated in the “Results” section. We defined antibody titers as the inverse of the greatest serum dilution in which a significant difference (p<0.05) between the percentage antibody bound from the antiserum and the pre-immune serum was observed. Immunoglobulin classes were determined using goat-anti-rabbit-μ-chain-specific, -heavy chain specific, and -heavy and light chain specific secondary antibodies that were linked to horseradish peroxidase. In order to determine antibody specificity, competition experiments were employed, using a limiting dilution (1:300) of purified antibody. […] The absorbance was measured at 450 nm in a 96-well plate reader.
We sought to determine whether or not homocystamide adducts of other proteins could also be used in order to measure antibody titers. […] This curve resembled the serum dilution curve obtained in FIG. 4, as the antiserum recognized both homocystamide-BSA and homocystamide-hemoglogin adduct, indicated by antiserum dilution-dependent increase in the absorbance at 450 nm.

Row | Molecule | competition for binding to the antiserum (dose-dependent decrease in %B/B0) [1] | IC50 values, D,L- versus L-homocystamide-BSA compared [2] | further results
1 | N[C@@H](CCS)C(=O)O [homocysteine] | Neither homocysteine, homocystine (homocysteine disulfide), nor Cu^2+-oxidized LDL competed for binding |  | competition for binding to the antiserum (dose-dependent decrease in %B/B0) ([1]; listed as free homocysteine): did not compete for binding
2 | N[C@@H](CCSSCC[C@H](N)C(=O)O)C(=O)O [homocystine] | neither BSA nor homocysteine disulfide (homocystine) were recognized; also recorded: Neither homocysteine, homocystine (homocysteine disulfide), nor Cu^2+-oxidized LDL competed for binding |  | competition / recognition by purified polyclonal antibody ([2]; purified polyclonal antibody 1:300, solid phase homocystamide-LDL): much less affinity than protein-homocystamide adducts; also recorded: recognized, however with much lower affinity
3 | D,L-homocystamide-BSA: BSA incubated with D,L Homocysteine thiolactone |  | not significantly different | 
4 | L-homocystamide-BSA: BSA incubated with L-homocysteine thiolactone |  | not significantly different | 
5 | homocystamide-BSA adduct: BSA treated with homocysteine thiolactone; printed as BSA in the IC50 sentence of b114 |  |  | IC50, inhibition of antibody binding (B/B0) [3]: approximately 200 μg/ml; recognition by the antiserum (dilution-dependent increase in absorbance at 450 nm) [4]: recognized
